Results as given in US9630929B2, “Benzenesulfonamide compounds and their use as therapeutic agents” (XENON PHARMACEUTICALS INC., priority 2011, dated 2017).

Legend:
NaV1.7 = NaV1.7 (Homo sapiens (Human), UniProt Q15858); assay: NaV flux assay, inhibition of NaV1.7; format: cell-based; details: NaV flux data, included when EP data is not available
NaV1.5 = NaV1.5 (Homo sapiens (Human), UniProt Q14524); assay: NaV flux assay, inhibition of NaV1.5; format: cell-based; details: NaV flux data, included when EP data is not available
NaV1.5, sequence (Q14524 whole entry): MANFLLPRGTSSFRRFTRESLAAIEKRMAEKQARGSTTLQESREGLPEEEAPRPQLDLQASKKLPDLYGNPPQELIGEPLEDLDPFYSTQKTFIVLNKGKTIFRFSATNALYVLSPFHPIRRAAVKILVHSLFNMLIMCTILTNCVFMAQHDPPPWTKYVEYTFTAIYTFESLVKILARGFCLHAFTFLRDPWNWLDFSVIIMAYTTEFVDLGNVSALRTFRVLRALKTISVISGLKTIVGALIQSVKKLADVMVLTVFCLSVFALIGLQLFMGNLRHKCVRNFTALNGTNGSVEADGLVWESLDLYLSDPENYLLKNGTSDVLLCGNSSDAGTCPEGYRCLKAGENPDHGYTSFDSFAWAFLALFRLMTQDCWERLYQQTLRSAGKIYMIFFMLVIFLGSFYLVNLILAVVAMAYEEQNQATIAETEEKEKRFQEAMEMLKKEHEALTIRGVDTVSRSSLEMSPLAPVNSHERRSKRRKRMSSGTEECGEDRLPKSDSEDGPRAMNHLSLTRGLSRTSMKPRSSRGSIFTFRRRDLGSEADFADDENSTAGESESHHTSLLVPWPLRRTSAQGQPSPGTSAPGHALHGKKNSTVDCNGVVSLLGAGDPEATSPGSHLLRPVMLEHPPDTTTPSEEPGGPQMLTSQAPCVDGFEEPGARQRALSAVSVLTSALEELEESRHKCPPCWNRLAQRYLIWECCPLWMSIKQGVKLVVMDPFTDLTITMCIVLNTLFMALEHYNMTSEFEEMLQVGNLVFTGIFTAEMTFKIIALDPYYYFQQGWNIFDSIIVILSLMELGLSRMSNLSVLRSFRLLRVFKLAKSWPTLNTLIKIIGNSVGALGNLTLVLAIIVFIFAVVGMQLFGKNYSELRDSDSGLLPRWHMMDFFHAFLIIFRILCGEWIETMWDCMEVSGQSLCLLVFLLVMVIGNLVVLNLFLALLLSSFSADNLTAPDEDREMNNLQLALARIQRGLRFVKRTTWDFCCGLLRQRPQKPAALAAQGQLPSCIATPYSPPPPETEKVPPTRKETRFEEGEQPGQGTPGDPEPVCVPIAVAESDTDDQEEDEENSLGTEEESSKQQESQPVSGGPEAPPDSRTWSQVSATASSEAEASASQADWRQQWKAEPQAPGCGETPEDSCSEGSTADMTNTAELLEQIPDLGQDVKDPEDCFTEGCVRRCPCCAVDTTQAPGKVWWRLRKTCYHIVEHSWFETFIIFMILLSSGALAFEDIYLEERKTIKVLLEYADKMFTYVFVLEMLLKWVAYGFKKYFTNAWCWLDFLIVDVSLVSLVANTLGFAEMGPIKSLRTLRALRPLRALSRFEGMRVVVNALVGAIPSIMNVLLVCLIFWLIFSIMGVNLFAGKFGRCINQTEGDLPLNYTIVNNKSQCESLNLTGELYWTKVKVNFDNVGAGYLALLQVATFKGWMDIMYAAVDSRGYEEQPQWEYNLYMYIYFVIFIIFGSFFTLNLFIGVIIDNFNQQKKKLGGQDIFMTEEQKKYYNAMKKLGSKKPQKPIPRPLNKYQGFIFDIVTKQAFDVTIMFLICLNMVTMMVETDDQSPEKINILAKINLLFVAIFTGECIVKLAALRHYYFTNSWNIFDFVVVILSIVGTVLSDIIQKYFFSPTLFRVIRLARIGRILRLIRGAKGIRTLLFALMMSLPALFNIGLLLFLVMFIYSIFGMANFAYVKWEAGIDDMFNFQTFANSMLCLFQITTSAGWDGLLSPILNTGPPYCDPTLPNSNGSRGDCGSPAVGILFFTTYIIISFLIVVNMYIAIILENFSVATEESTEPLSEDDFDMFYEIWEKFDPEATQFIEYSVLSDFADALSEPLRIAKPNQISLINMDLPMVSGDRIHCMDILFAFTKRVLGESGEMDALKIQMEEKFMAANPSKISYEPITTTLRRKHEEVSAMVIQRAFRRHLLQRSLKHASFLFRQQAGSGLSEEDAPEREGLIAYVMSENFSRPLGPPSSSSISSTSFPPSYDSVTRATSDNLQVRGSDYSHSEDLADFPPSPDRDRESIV

NaV1.7, sequence (Q15858 other isoform, or with tags, fused parts or gaps): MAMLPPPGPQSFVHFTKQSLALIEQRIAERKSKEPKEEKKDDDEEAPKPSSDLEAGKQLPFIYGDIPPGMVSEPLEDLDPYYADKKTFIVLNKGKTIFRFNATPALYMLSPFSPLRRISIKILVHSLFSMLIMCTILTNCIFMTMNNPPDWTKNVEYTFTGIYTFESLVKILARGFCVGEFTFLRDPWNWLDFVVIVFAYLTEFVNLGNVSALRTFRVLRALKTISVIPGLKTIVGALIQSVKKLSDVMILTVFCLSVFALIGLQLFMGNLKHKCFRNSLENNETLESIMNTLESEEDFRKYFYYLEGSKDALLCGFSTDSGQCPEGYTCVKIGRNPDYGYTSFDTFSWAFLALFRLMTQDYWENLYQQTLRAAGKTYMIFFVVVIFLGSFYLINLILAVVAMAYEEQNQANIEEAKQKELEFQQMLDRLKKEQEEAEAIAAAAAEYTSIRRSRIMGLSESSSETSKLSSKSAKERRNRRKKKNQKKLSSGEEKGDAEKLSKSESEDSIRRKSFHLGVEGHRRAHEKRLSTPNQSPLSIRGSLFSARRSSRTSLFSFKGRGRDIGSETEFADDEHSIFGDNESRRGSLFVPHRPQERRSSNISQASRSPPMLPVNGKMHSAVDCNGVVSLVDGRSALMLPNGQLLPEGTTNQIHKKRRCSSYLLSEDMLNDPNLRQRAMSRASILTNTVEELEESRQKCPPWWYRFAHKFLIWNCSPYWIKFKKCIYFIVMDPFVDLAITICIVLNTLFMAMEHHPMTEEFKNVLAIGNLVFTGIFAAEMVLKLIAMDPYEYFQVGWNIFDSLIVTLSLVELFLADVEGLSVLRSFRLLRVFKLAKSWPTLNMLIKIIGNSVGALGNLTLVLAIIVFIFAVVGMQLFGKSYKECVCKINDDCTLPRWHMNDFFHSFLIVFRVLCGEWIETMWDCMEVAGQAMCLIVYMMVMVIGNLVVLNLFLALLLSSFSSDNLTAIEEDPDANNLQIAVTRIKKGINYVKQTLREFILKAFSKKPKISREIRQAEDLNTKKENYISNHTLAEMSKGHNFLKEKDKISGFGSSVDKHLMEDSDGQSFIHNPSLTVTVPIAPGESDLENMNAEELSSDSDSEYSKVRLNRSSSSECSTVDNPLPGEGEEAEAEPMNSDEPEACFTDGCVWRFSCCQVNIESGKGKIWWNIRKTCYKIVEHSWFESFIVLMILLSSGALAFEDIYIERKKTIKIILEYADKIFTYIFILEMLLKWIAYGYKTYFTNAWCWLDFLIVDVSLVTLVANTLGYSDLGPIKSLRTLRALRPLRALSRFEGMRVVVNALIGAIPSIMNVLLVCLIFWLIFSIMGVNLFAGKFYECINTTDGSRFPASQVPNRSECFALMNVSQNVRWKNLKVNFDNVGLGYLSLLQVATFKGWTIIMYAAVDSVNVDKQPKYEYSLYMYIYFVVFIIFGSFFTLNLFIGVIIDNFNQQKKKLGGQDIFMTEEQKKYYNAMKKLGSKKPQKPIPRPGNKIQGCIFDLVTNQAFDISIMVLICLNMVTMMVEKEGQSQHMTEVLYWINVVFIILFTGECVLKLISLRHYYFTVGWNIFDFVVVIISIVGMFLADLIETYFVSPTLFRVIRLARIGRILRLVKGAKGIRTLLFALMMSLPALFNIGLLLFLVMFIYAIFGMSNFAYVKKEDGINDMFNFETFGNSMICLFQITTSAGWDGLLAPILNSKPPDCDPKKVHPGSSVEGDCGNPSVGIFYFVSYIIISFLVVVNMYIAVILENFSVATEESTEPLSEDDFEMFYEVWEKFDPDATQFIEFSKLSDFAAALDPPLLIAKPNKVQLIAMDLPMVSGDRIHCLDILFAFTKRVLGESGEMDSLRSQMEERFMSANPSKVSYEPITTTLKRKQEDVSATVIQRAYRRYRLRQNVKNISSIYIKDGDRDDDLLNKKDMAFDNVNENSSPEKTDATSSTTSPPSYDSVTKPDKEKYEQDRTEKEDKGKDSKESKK
NaV1.7, sequence (Q07699 19-218 partner): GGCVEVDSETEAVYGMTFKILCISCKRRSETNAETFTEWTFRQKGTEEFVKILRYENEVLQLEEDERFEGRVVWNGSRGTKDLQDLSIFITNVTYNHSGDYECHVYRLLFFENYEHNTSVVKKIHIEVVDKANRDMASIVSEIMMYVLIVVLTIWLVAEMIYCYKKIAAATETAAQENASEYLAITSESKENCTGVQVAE

Row | IC50 (NaV1.7) [µM] | Structure (SMILES) | IC50 (NaV1.5) [µM]
1 | 0.132 | COc1ccc([C@@H]2CCNC[C@H]2COc2cc(F)c(S(=O)(=O)Nc3ncns3)cc2F)cc1 (relative stereo) [Example 94, 2,5-difluoro-4-((trans-4-(4-methoxyphenyl)piperidin-3-yl)methoxy)-N-(1,2,4-thiadiazol-5-yl)benzenesulfonamide] | > 10
2 | 0.393 | Cc1ccc([C@@H]2CCNC[C@H]2COc2cc(F)c(S(=O)(=O)Nc3ncns3)cc2F)cc1 (relative stereo) [Example 100, 2,5-difluoro-N-(1,2,4-thiadiazol-5-yl)-4-((trans-4-(p-tolyl)piperidin-3-yl)methoxy)benzenesulfonamide] | > 10
3 | 0.071 | O=S(=O)(Nc1ncns1)c1cc(F)c(OC[C@@H]2CNCC[C@H]2c2ccc(F)c(C(F)F)c2)cc1F (relative stereo) [Example 108, 4-((trans-4-(3-(difluoromethyl)-4-fluorophenyl)piperidin-3-yl)methoxy)-2,5-difluoro-N-(1,2,4-thiadiazol-5-yl)benzenesulfonamide] | > 10
4 | 0.181 | O=S(=O)(Nc1ncns1)c1cc(F)c(OC[C@@H]2CNCC[C@H]2c2cc(F)c(F)cc2F)cc1F (relative stereo) [Example 106, 2,5-difluoro-N-(1,2,4-thiadiazol-5-yl)-4-((trans-4-(2,4,5-trifluorophenyl)piperidin-3-yl)methoxy)benzenesulfonamide] | > 10
5 | 0.038 | O=S(=O)(Nc1ncns1)c1cc(F)c(OC[C@@H]2CNCC[C@H]2c2ccc(F)c(C(F)(F)F)c2)cc1F (relative stereo) [Example 107, 2,5-difluoro-4-((trans-4-(4-fluoro-3-(trifluoromethyl)phenyl)piperidin-3-yl)methoxy)-N-(1,2,4-thiadiazol-5-yl)benzenesulfonamide] | > 10

The next lines start with the compound.

Row | Structure (SMILES) | IC50 (NaV1.7) [µM] | IC50 (NaV1.5) [µM]
6 | O=S(=O)(Nc1ncns1)c1cc(F)c(OC[C@@H]2C[C@@H](O)CCC2c2ccc(Cl)cc2)cc1F (stereo partly drawn) [Example 111, 4-(((trans-5R)-2-(4-chlorophenyl)-5-hydroxycyclohexyl)methoxy)-2,5-difluoro-N-(1,2,4-thiadiazol-5-yl)benzenesulfonamide] | 2.04 | > 10
7 | O=S(=O)(c1cc(F)c(OC[C@@H]2CNCC[C@H]2c2ccc(F)cc2)cc1F)n1cccn1 (relative stereo) [Example 98, trans-3-((4-((1H-pyrazol-1-yl)sulfonyl)-2,5-difluorophenoxy)methyl)-4-(4-fluorophenyl)piperidine] | 7.22 | 7.53
8 | O=S(=O)(Nc1ncns1)c1cc(F)c(OC[C@@H]2C[C@H](O)CCC2c2ccc(Cl)cc2)cc1F (stereo partly drawn) [Example 110, 4-(((trans-5S)-2-(4-chlorophenyl)-5-hydroxycyclohexyl)methoxy)-2,5-difluoro-N-(1,2,4-thiadiazol-5-yl)benzenesulfonamide] | 0.426 | > 10
9 | CC(C)CNS(=O)(=O)c1cc(F)c(OC[C@@H]2CNCC[C@H]2c2ccc(Cl)cc2)cc1F (relative stereo) [Example 96, 4-((trans-4-(4-chlorophenyl)piperidin-3-yl)methoxy)-2,5-difluoro-N-isobutylbenzenesulfonamide] | 4.9 | 7.56
10 | O=S(=O)(Nc1ncns1)c1cc(F)c(OCC2CNCCN2c2ccc(Cl)cc2)cc1F (stereo not drawn) [Example 112, 4-((1-(4-chlorophenyl)piperazin-2-yl)methoxy)-2,5-difluoro-N-(1,2,4-thiadiazol-5-yl)benzenesulfonamide] | 0.326 | > 10
11 | CN(c1ncns1)S(=O)(=O)c1cc(F)c(OC[C@@H]2CNCC[C@H]2c2ccc(Cl)cc2)cc1F (relative stereo) [Example 79, 4-((trans-4-(4-chlorophenyl)piperidin-3-yl)methoxy)-2,5-difluoro-N-methyl-N-(1,2,4-thiadiazol-5-yl)benzenesulfonamide] | 7.88 | > 10
12 | O=C1CC[C@@H](c2ccc(Cl)cc2)[C@H](COc2cc(F)c(S(=O)(=O)Nc3ncns3)cc2F)C1 (relative stereo) [Example 109, 4-((trans-2-(4-chlorophenyl)-5-oxocyclohexyl)methoxy)-2,5-difluoro-N-(1,2,4-thiadiazol-5-yl)benzenesulfonamide] | 0.244 | > 10
